Molecular target: T1, α4β1 integrin (Homo sapiens, UniProt P05556+P13612)
T1 construct: endogenous in cells; host or cells: U-937 cells
Test: U-937 Cell Adhesion to Human VCAM-1 (α4β1 Binding Assay)
Assay type: cell-based
Conditions: read-out: IC50 values in the α4β1 assays
Protocol: Recombinant human soluble VCAM-1. (R&D Systems Ltd., UK) at 2 μg/ml in PBS was immobilized overnight onto microtiter plates. Unbound VCAM-1 was washed away and VCAM-1 coated plates were blocked with bovine serum albumin (BSA) 2.5% in PBS for 2 h at room temperature. U-937 cells were labelled with 5-carboxyfluorescein diacetate (5-CFDA) in order to detect bound cells to the wells. Test compounds were added to the wells followed by U-937 cells and the adhesion assay was performed for 1 h at 37° C. Following incubation, the wells were emptied and washed. Inhibition of binding was measured by the quantity of fluorescence bound to the plate for each of the various concentrations of test compound, as well as for controls containing no test compound, with a Cytofluor 2300 fluorescence measurement system.

T1 sequence (P13612 34-1032): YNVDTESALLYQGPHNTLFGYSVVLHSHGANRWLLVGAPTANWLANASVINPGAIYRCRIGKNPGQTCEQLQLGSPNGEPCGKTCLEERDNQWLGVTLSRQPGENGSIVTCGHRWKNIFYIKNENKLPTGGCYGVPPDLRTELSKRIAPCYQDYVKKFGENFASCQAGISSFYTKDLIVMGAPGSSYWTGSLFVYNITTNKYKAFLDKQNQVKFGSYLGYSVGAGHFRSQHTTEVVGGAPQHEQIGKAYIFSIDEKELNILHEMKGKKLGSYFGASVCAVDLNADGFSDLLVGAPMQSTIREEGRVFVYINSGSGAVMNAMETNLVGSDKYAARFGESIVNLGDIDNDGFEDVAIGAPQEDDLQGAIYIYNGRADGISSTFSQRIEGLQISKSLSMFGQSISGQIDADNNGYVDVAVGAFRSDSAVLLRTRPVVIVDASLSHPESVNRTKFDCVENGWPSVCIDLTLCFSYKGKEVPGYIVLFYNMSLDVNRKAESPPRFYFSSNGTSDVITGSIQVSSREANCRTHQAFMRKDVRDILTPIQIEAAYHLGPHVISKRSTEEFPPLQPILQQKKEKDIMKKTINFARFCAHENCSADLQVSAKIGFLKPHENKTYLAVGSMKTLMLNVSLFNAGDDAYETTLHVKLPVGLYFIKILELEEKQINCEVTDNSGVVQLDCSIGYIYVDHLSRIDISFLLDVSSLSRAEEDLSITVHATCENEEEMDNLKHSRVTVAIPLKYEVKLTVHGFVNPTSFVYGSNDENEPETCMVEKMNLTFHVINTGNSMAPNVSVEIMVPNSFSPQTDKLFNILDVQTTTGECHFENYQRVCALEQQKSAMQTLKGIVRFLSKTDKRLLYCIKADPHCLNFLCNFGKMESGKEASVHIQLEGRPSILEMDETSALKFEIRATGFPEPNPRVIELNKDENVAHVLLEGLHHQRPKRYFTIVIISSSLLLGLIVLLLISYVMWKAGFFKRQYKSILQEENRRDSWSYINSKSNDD
T1 sequence (P05556 21-798): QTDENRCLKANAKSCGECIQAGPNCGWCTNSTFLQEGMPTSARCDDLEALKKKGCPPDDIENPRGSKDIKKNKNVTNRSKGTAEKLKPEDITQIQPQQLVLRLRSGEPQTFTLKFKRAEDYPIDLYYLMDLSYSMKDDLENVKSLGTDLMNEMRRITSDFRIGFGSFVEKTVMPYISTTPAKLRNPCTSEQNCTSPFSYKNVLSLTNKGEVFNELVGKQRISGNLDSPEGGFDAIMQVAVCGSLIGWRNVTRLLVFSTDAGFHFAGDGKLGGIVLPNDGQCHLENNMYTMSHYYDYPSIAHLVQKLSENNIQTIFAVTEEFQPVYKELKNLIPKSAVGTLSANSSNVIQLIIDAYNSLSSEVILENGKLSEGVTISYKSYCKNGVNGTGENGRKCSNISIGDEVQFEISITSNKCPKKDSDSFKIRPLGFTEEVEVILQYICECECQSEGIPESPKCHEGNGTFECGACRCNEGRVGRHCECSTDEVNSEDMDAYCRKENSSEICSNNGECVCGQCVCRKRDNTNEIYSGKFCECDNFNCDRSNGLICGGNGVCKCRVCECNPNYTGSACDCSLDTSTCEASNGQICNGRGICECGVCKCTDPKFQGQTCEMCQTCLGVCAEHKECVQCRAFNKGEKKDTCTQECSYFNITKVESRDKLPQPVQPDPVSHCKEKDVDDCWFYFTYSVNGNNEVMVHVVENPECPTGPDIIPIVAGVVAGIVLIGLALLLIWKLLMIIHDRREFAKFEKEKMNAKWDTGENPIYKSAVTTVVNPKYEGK

SMILES	IC50 [nM]
O=C(Nc1ccc(C[C@H](NS(=O)(=O)NCc2ccccc2)C(=O)O)cc1)c1c(Cl)cccc1Cl [Example 3, (2S)-2-(N-benzylaminosulfonilamino)-3-[4-(2,6dichlorobenzoylamino)phenyl]propionic acid]	< 100
CC(C)N(C1CCCC1)S(=O)(=O)N[C@@H](Cc1ccc(NC(=O)c2c(Cl)cncc2Cl)cc1)C(=O)O [Example 71, (2S)-2-({[cyclopentyl(isopropyl)amino]sulfonyl}amino)-3-{4-[(3,5-dichloroisonicotinoyl)amino]phenyl}propionic acid]	< 100
CC(C)CN([C@H](C)c1ccccc1)S(=O)(=O)N[C@@H](Cc1ccc(NC(=O)c2c(Cl)cncc2Cl)cc1)C(=O)O [Example 77, (2S)-3-{4-[(3,5-dichloroisonicotinoyl)amino]phenyl}-2-[({isobutyl[(1R)-1-phenylethyl]amino}sulfonyl)amino]propionic acid]	< 100
O=C(Nc1ccc(C[C@H](NS(=O)(=O)Nc2ccccc2S(=O)(=O)c2ccccc2)C(=O)O)cc1)c1c(Cl)cncc1Cl [Example 81]	< 100
